We go through 14 compounds from patent publication US5811582A, “Dimethyl-(3-aryl-but-3-enyl)-amine compounds as pharmaceutical active ingredients” (priority 1996, dated 1998).

Structures can show the parent of a compound that is named as a salt.

For orientation: ED50 means the dose that gives a 50% effect, or the effect in half of the subjects.

The subject of the first assay is mice. Nature of the assay: Phenylquinone-induced writhing test on mice (analgesia). Format: in vivo, male NMRI mice. Particulars: Mus musculus, iv, read-out: ED50 (writhing test on mice). As for the experimental part:
Testing for analgesia using the writhing test on mice
Testing for analgesic effectiveness was performed using the phenylquinone-induced writhing test on mice, modified according to I. C. Hendershot, J. Forsaith, J. Pharmacol. Exp. Ther. 125, 237-240 (1959). Male NMRI mice with a weight of 25-30 g were used for this purpose. For each dose of substance, groups of 10 animals received, 10 minutes after the intravenous administration of a compound according to the invention, 0.3 ml per mouse of an 0.02% aqueous solution of phenylquinone (phenylbenzoquinone: manufactured by Sigma, Deisenhofen; solution prepared with the addition of 5% ethanol and kept on a water bath at 45° C.) administered intraperitoneally. The animals were placed individually in observation cages. The number of pain-induced stretching movements (so-called writhing reactions=straightening of the body with stretching of the rear extremities) 5-20 minutes after the administration of phenylquinone was counted by means of a push-button counter.
The ED50 values of the writhing reaction were calculated by means of regression analysis (evaluation program supplied by Martens EDV Service, Eckental) from the dose-dependent decrease in the writhing reactions, by comparison with groups of animals which were tested in parallel and to which no compounds according to the invention were administered.
In general terms: Writhing tests count abdominal constrictions after an irritant is injected.
With `COc1cccc([C@@]2(O)CCCC[C@@H]2CN(C)C)c1.Cl` (racemic) [tramadol, (1RS,2RS)-2-dimethylaminomethyl-1-(3-methoxy-phenyl)-cyclohexanol hydrochloride, reference compound], the ED50 is 3.68 mg/kg.

The same assay, now with this note: Mus musculus; mice; intravenous, 10 minutes before phenylquinone (0.3 ml of 0.02% solution i.p.); writhing reactions counted 5-20 minutes after phenylquinone; read-out: ED50 (writhing test on mice).
Consider `CC(C)=C(c1cccc(O)c1)C(C)CN(C)C.Cl` (racemic) [Example 18, (RS)-3-[1-(2-dimethylamino-1-methyl-ethyl)-2-methyl-propenyl]-phenol hydrochloride], for which the ED50 is 2.07 mg/kg. Still for that read-out and setting: the value for `C[C@@H]1C=C(c2cccc(O)c2)[C@H](CN(C)C)CC1` [25 (-)-enantiomer] was 0.9 mg/kg. As to `CN(C)C[C@@H]1CCCC=C1c1cccc(O)c1` [26 (-)-enantiomer], the 50% effective dose (ED50) is 1.04 mg/kg. Consider `CN(C)C[C@H]1CCCC=C1c1cccc(O)c1` [27 (+)-enantiomer], for which the ED50 was found to be 1.6 mg/kg.

As to `C/C=C(\c1cccc(O)c1)C(C)CN(C)C.Cl` (racemic) [Example 2, (Z)-(RS)-3-[1-(2-dimethylamino-1-methyl-ethyl)-propenyl]-phenol hydrochloride], the ED50 stood at 1.37 mg/kg. Turning to `CC/C=C(\c1cccc(O)c1)C(C)CN(C)C.Cl` (racemic) [Example 15, (Z)-(RS)-3-[1-(2-dimethylamino-1-methyl-ethyl)-but-1-enyl]-phenol hydrochloride], the ED50 is 1.33 mg/kg. The same measure, in the same setting: the same measure for `CN(C)C[C@@H]1CCC=C1c1ccc(C(F)(F)F)cc1` [20 (-)-enantiomer]: 2.12 mg/kg.

As for `CN(C)C[C@H]1CCC=C1c1ccc(C(F)(F)F)cc1` [20 (+)-enantiomer], the ED50 turned out to be 1.4 mg/kg. For `C/C=C(\c1ccc2cc(O)ccc2c1)C(C)CN(C)C.Cl` (racemic) [Example 12, (Z)-(RS)-6-[1-(2-dimethylamino-1-methyl-ethyl)-propenyl]-naphth-2-ol hydrochloride], the ED50 turned out to be 0.97 mg/kg. With `Cc1cc2c(C3=CCCCC3CN(C)C)cccc2s1.Cl` (racemic) [Example 24, (RS)-dimethyl-[2-(2-methyl-benzo[b]thiophen-4-yl]-cyclohex-2-enylmethyl]-amine hydrochloride], the ED50 came to 1.35 mg/kg. The same measure, in the same setting: the same measure for `C/C=C(\c1cccc(O)c1)[C@@H](C)CN(C)C` [3 (-)-enantiomer]: 0.98 mg/kg; for `C/C=C(\c1cccc(O)c1)[C@H](C)CN(C)C` [3 (+)-enantiomer]: 2.25 mg/kg; for `C/C=C(\c1cccc(OC(=O)c2ccccc2OC(C)=O)c1)C(C)CN(C)C` (racemic) [Example 4, (Z)-(RS)-2-acetoxy-benzoic acid-3-[1-2-dimethylamino-1-methyl-ethyl)-propenyl]-phenyl ester hydrochloride]: 1.64 mg/kg.
